Test results: patent US11958842B2, “Substituted phenazines and methods of treating cancer and bacterial diseases” (Adjutec Pharma AS, priority 2016, dated 2024)
Converted amounts (≈) assume the structure as drawn. Where two headings read alike, the source gives them in different places.

Assays:
[1] = tested on: human acute myeloid leukemia cell line MOLM-13; assay: Cytotoxicity, WST-1 and nuclear morphology (Example 73); type: cell-based
Procedure: (§1) All cell culturing media and serum were from Sigma-Aldrich (St. Louis, Mo., USA). Product Nos. are given in parentheses. The human acute myeloid leukemia cell line MOLM-13 was cultured in RPMI medium (R5886) enriched with […] (F7524) and 0.2 mM L-glutamine (G7513). The normal rat kidney epithelial (NRK) and the rat cardiomyoblast (H9c2) cells were cultured in DMEM medium (D6429) enriched with 10% fetal bovine serum (F7524). All cell lines were additionally supplemented with 100 IU/mL penicillin and […] (P0781). The cells were cultured in a humidified atmosphere either under 2% or 20% O2 at 37° C.
(§2) All analogues were dissolved in DMSO (D5879, Sigma-Aldrich) at concentrations between 2.5 and 20 mM before testing. For cytotoxic testing, the MOLM-13 cells were seeded as 20,000 cells/well, while NRK and H9c2 cells were seeded as 5,000 cells/well in 96-well Microplates (#167008, Thermo Scientific™ Nunc™ MicroWell™) with 100 μL medium/well. The cells were exposed to various concentrations of iodinin or its analogues for 24 hrs before the cell proliferation reagent WST-1 was used to assess the viability, in accordance with the manufacturer's instructions (11644807001, Roche Diagnostics, Sigma-Aldrich). The cells were next fixed in 2% buffered formaldehyde (pH 7.4) with the DNA-specific dye Hoechst 33342 (Polysciences Inc.) and assessed for cell death by UV-microscopy based on nuclear morphology. The highest concentration of analogue corresponded to 1% of DMSO, which alone gave less than 7% cell death as judged by nuclear morphology.
(§3) EC50 values were determined by analyses of WST-1 signal results as well as microscopic evaluation of cell death by four-parameter regression analyses using the SigmaPlot software (Systat Software inc. San Jose, Calif.):
(§4) [formula] where Y is the response (WST-1 signal or percent apoptosis), min and max are minimum and maximum response, X is concentration of analogue, EC50 equals the point of inflection, i.e. the point that gives half of maximum response, and h is the Hill's slope of the curve. The two methods gave consistent response curves for each analogue. In the case of Tirapazamine, where its colour interfered with the WST-1 signal, only microscopic evaluation of Hoechst stained cells was used in order to calculate its EC50 values.

[2] = tested on: normal rat kidney epithelial (NRK) cells; assay: as above; type: cell-based
Procedure: as §1, §2, §3, §4

[3] = tested on: rat cardiomyoblast (H9c2) cells; assay: as above; type: cell-based; conditions: read-out: EC50 (μM) H9c2 19% O2
Procedure: as §1, §2, §3, §4

[4] = tested on: hepG2; assay: Cytotoxicity (Example 73, Table 2); type: cell-based; conditions: Homo sapiens, read-out: EC50 (μM) hepG2
[5] = Parallel artificial membrane permeability assay (PAMPA); conditions: for Permeability: PAMPA class by ranges of Bennion et al.; for LogPeff: PAMPA, 50 μM in PBS, room temperature, five hours
Procedure: The Corning Gentest™ pre-Coated parallel artificial membrane permeability assay PAMPA Plate System was from Cording Discovery Labware (Bedford, USA). The compounds were tested in room temperature at 50 μM using PBS as buffer. A total of 300 μl of the compound solution was added to each well of the donor plate, and 200 μl of PBS was added to the receiver filter plate. After incubation for five hours, 50 μl of the donor or acceptor well were injected into a reversed phase HPLC column (Kromasil 100-5 C18 150-4.6 mm, Akzo Nobel, Sweden) connected to a Merck-Hitachi LaChrome HPLC-system (VWR, WestChester, USA) with a L-7455 diode array detector. Mobile phase A was 0.05% aqueous TFA, and mobile phase B was acetonitrile. The flow rate was 1.6 ml/min and compounds eluted between 1 and 4.5 minutes was eluted during a 6.5 min gradient from 90:10% mobile phase A:B to 0:100% mobile phase A:B. The ratio of the compound concentrations in the donor and acceptor compartment was calculated after integration of the peaks at 285 nm. Peff was calculated as described in [Bennion B J, Be N A, McNerney M W, Lao V, Carlson E M, Valdez C A, et al. Predicting a Drug's Membrane Permeability: A Computational Model Validated With in Vitro Permeability Assay Data. The journal of physical chemistry B. 2017; 121(20):5228-37.]. Membrane permeability were classified by the range defined by Bennion et al., allowing for us to divide the compounds into four groups, compounds with high permeability (LogPeff>−5.33), intermediate permeability (LogPeff>−5.66 and <−5.33), low permeability (LogPeff>−6.14 and <−5.66) impermeable (LogPeff<−6.14).

[6] = tested on: Molm13 cells; assay: Anti-AML activity, WST-1 viability (Example 72); type: cell-based; conditions: Homo sapiens, MOLM-13, 24 h
Procedure: Dry powder of analogs were dissolved in DMSO. IPC-18 rat AML cells (Lacaze, N. et al. Leuk. Res. 1983, 7, 145.) were cultured in DMEM medium (Sigma-Aldrich, St. Louis, Mo., USA) supplemented with 10% horse serum (Invitrogen, Carlsbad, Calif., USA), and antibiotics (50 U/mL of penicillin and 0.05 mg/mL streptomycin). Molm13 (Matsuo, Y. et al. Leukemia 1997, 11, 1469.) cells were cultured in RPMI supplemented with antibiotics (50 U/mL of penicillin and 0.05 mg/mL streptomycin) and 10% fetal bovine serum (FBS, Invitrogen, Carlsbad, Calif.) and kept in exponential growth before the experiments. Dilution series of iodinin analogs were added to medium and cell suspension added to reach a final cell concentration of 150 000 cells/ml in 0.1 mL in a 96 well tissue culture plate. […] The cells were incubated with the iodinin analogs for 22 h before WST-1 was added according to the manufacturers protocol, and the cells incubated further in 2 h. Mitochondrial conversion of WST-1 to its colored metabolite was measured by a plate reader at 450 nm, with 620 nm as the reference wavelength. The cells were next fixed by adding 4% buffered formaldehyde (PBS, pH 7.4, supplemented with 0.01 mg/mL Hoechst 33342 for nuclear visualization) to the cell suspension at 1:1 (v/v) ratio (final concentration of formaldehyde:[…]). The cells' nuclear and surface morphology were examined microscopically and results compared with the WST-1 viability assay. The results given in Table I are based on WST-1 data.

[7] = tested on: methicillin-resistant S. aureus MRSA A4-37; assay: Microbroth dilution MIC; type: cell-based; conditions: compound alone
Procedure: (§5) Day 1: • Plate bacterial strain(s) on appropriate media: • Gram-negative bacteria with ESBLs or carbapenemases: green agar plates with 100 mg/L ampicillin • Gram-negative bacteria without β-lactamases: green agar plates • Gram-positive bacteria (Staphylococci and Enterococci): blood agar plates • Incubate o.n. at 37° C.
(§6) Prepare the Bacterial Inoculum: • Prepare a 0.5 McFarland suspension of bacteria in 0.85% NaCl. (Should be used within 15 min of preparation). • Dilute the 0.5 McFarland suspension 1:100 into MH broth.
(§7) Check the inoculum by diluting the prepared bacterial suspension 1:100 (10 μl bacterial suspension+990 μl 0.85% NaCl). Plate 10 μl of the dilution on MH agar plates (×2). Incubate o.n. at 37° C., count the colonies and calculate the final CFU/ml inoculum in the plate by multiplying the average number of colonies with 10000 and divide by 2. The final inoculum should be between 3-7×10^5 CFU/ml. • Add 50 μl of the prepared bacterial suspension to each well in the microtiter plate except negative growth control.
(§8) Preparation of Compounds/Antibiotics • Calculate the desired concentration-range and volume of the compounds/antibiotics in the assay. For antibiotics this will depend on the MIC to meropenem of the bacterial strains to be tested. Dilute the stock solution in MH broth. Make subsequent 2-fold dilutions in MH broth of the desired concentrations if a concentration range is to be tested (remember the extra dilution factor in the assay plate). Always include extra volume for pipetting. Take into consideration stock solutions that are made in buffers that have an effect on bacterial growth (e.g. DMSO).
(§9) This experimental design was used for the results in Tables 4 and 5 below. In Table 4, inhibitor concentration dependency on the MIC of meropenem was studied.

[8] = tested on: vancomycin-resistant E. faecium vanA A1-22; assay: Microbroth dilution MIC; type: cell-based; conditions: compound alone
Procedure: as §5, §6, §7, §8, §9

[9] = MOLM-13, 2% O2, 24 hours of incubation, read-out: EC50 (μM) MOLM-13 2% O2
[10] = MOLM-13, 19% O2, 24 hours of incubation, read-out: EC50 (μM) MOLM-13 19% O2
[11] = Rattus norvegicus, 24 h, read-out: EC50 (μM) NRK 2% O2, NRK, 2% O2, 24 hours of incubation
[12] = Rattus norvegicus, 24 h, read-out: EC50 (μM) NRK 19% O2, NRK, 19% O2, 24 hours of incubation
[13] = H9c2, 19% O2, 24 hours of incubation
[14] = read-out: EC50 (μM) NRK 2% O2, 2% O2, 24 hours of incubation
[15] = read-out: EC50 (μM) NRK 19% O2, 19% O2, 24 hours of incubation

Compound | LogPeff [5] | EC50 [1, 9] [µM] | EC50 [1, 10] [µM] | EC50 [2, 11] [µM] | EC50 [2, 12] [µM] | EC50 [3, 13] [µM] | EC50 ([4]; HepG2, 24 h) [µM] | MIC A4-37 S. aureus MRSA [7] [µg/mL] | MIC A1-22 E. faecium vanA [8] [µg/mL] | further results
CCOC(=O)COc1cccc2c1[n+]([O-])c1cc(Cl)c(Cl)cc1[n+]2[O-] [Example 6c, 7,8-dichloro-1-(2-ethoxy-2-oxoethoxy)phenazine 5,10-dioxide] | −5.42 |  |  |  |  |  |  |  |  | EC50 ([1]; Homo sapiens, MOLM-13, 2% O2, 24 hours of incubation, read-out: EC50 (μM) MOLM-13 2% O2): 0.38 ± 0.04 µM; EC50 ([1]; Homo sapiens, MOLM-13, 19% O2, 24 hours of incubation, read-out: EC50 (μM) MOLM-13 19% O2): 0.41 ± 0.05 µM; EC50 ([2]; Rattus norvegicus, 2% O2, 24 hours of incubation, read-out: EC50 (μM) NRK 2% O2): 4.7 ± 0.09 µM; EC50 ([2]; Rattus norvegicus, 19% O2, 24 hours of incubation, read-out: EC50 (μM) NRK 19% O2): 3.1 ± 0.02 µM; EC50 ([3]; Rattus norvegicus, H9c2, 19% O2, 24 hours of incubation): 1.3 ± 0.2 µM; EC50 ([4]; hepG2, 24 hours of incubation): 12 µM; Permeability [5]: Intermediate/high
COc1cccc2c1[n+]([O-])c1cccc(OC(=O)N3CCN(C)CC3)c1[n+]2[O-] [Example 8b, 1-methoxy-6-((4-methylpiperazine-1-carbonyl)oxy)phenazine 5,10-dioxide] | −5.77 | 0.98 ± 0.08 | 1 ± 0.06 | 39 ± 4.2 | 26 ± 2.1 | 26 ± 0.9 | 90 |  |  | 
CN1CCN(C(=O)Oc2cccc3c2[n+]([O-])c2ccccc2[n+]3[O-])CC1 [Example 8c, 1-((4-methylpiperazine-1-carbonyl)oxy)phenazine 5,10-dioxide] |  | 1.9 ± 0.05 | 1.5 ± 0.18 | 37 ± 1.9 | 25 ± 0.2 | 36 ± 11 |  | < 4 | 8 (≈ 22.6 µM) | IC50 ([6]; read-out: Molm 13 IC50 20% O2): 0.35 µM
CN1CCN(C(=O)Oc2cccc3c2[n+]([O-])c2cc4ccccc4cc2[n+]3[O-])CC1 [Example 8e, 1-((4-methylpiperazine-1-carbonyl)oxy)benzo[b]phenazine 5,12-dioxide] | −5.38 |  |  |  |  |  | 45 |  |  | EC50 ([1]; Homo sapiens, MOLM-13, 24 h, read-out: EC50 (μM) MOLM-13 2% O2): 0.32 ± 0.06 µM; EC50 ([1]; Homo sapiens, MOLM-13, 24 h, read-out: EC50 (μM) MOLM-13 19% O2): 0.34 ± 0.04 µM; EC50 [2, 14]: 15 ± 1.8 µM; EC50 [2, 15]: 10 ± 0.9 µM; EC50 ([3]; Rattus norvegicus, H9c2, 24 h): 3.2 ± 0.1 µM; Permeability [5]: Intermediate/high
CCN(CC)C(=O)Oc1cccc2c1[n+]([O-])c1cccc(O)c1[n+]2[O-] [Example 8i, 1-((diethylcarbamoyl)oxy)-6-hydroxyphenazine 5,10-dioxide] |  |  |  |  |  |  |  | < 4 | 8 (≈ 23.3 µM) | IC50 ([6]; read-out: Molm 13 IC50 2% O2): 0.74 µM; IC50 ([6]; read-out: Molm 13 IC50 20% O2): 0.76 µM
COc1cccc2c1[n+]([O-])c1cccc(OC(=O)N(C)C)c1[n+]2[O-] [Example 8m, 1-((dimethylcarbamoyl)oxy)-6-methoxyphenazine 5,10-dioxide] |  | 1.7 ± 0.09 | 1.9 ± 0.07 | 29 ± 0.7 | 22 ± 1.7 | 35 ± 1.8 |  | < 4 | 63 (≈ 191 µM) | 
COc1cccc2c1[n+]([O-])c1ccccc1[n+]2[O-] [Example 18, 1-methoxyphenazine 5,10-dioxide] |  |  |  |  |  |  |  | < 2 | 32 (≈ 132 µM) | 
CN1CCN(C(=O)Oc2cccc3c2[n+]([O-])c2cc(Br)c(Br)cc2[n+]3[O-])CC1 [Example 59, 7,8-dibromo-1-((4-methylpiperazine-1-carbonyl)oxy)phenazine 5,10-dioxide] |  | 0.23 ± 0.03 | 0.41 ± 0.04 |  |  | 2.2 ± 0.53 | 40 |  |  | EC50 [2, 14]: 7.6 ± 0.6 µM; EC50 [2, 15]: 6.2 ± 0.02 µM
